How the values were obtained:
S. aureus = assay: Specific and nonspecific cleavage in human serum with/without MN, read out by S. aureus culture in the supernatant; assay type: cell-based; conditions: PEGDMA-Oligo-Gentamicin hydrogel incubated 2 h in human serum with/without MN
Method: The data also support faster oligo cleavage by MN than by other nucleases present in the human serum.
Briefly, the PEGDMA-Oligo-Gentamicin hydrogel (50 μL, 8 mm in diameter, n=3) was immersed in 0.25 mL of human serum with or without MN (0.1 U/mL) and incubated at 37° C. for 2 h. The hydrogel was then removed while 0.25 mL of LB media containing 250 CFU S. aureus was added. The culture of S. aureus was incubated for 24 h at 37° C. with shaking.

[1] = target: T1, micrococcal nuclease (MN) (Staphylococcus aureus, UniProt P00644); assay: Enzymatic oligo digestion by micrococcal nuclease monitored by GPC; assay type: biochemical, S. aureus
T1 construct: purchased Worthington Biochemical Corporation; host or cells: S. aureus strain ATCC #27735
Source text: The cleavage of the oligo probe (synthesized and purified by Integrated DNA Technologies) by MN (source: S. aureus strain ATCC #27735; Worthington Biochemical Corporation) was first validated prior to its conjugation with vancomycin or PEGDMA hydrogel.
The digestion of the methacrylated oligo by micrococcal nuclease (MN, 0.1-1.0 U/μL) was monitored by aqueous gel permeation chromatography (GPC) on a Varian ProStar HPLC system with two PL Aquagel-OH columns (Agilent Technologies) and a UV detector. The eluent was aqueous PBS (10 mM, pH 7.4) and the flow rate was 1.0 mL/min. Detection of the oligo probe and its fragments upon digestion was enabled by UV absorbance at 260 nm. Extinction coefficient of 2′-O-methyl-modified nucleotides was assumed to be the same as that of RNA. All measurements were performed in triplicates.

Row | Substance | total CFU count of S. aureus after 24-h culture in supernatant (S. aureus) | cleavage of the oligo by MN (fragments by GPC, UV 260 nm) ([1]; MN 0.1 U/μL, PBS pH 7.4 10 mM, physiological concentration of calcium ions) | cleavage of the oligo by MN ([1]; absence of calcium ions)
1 | /5Carboxyl/*mC*mGTTmC*mG*/3Acryd/ [4 PS] | increased accordingly | – | –
2 | /5Carboxyl/*mC*mG*TT*mC*mG*/3Acryd/ [6 PS] | increased accordingly | – | –
3 | /5Carboxyl/mCmGTTmCmG/3Acryd/ [0 PS oligo] | least or no CFU count | two fragments | very little cleavage
